{"source": "paper PMC9674830", "about": "“A glutamine-based single α-helix scaffold to target globular proteins” (Nature Communications, 2022)", "target": "T1, RAP74-CTD (Homo sapiens, UniProt P35269)", "T1 construct": "spanning residues 450-517; His6-MBP (with TEV site) (N, cleaved yes); made in house; host or cells: E. coli Rosetta (DE3)pLysS", "T1 sequence (P35269 450-517)": "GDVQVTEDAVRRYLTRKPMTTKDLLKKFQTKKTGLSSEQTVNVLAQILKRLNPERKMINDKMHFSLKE", "experiment": "NMR chemical shift perturbation titration of peptides into 15N RAP74-CTD (KD)", "assay_type": "binding", "conditions": "15 molar equivalents of peptide, NMR", "procedure": "Recombinant samples with ^15N isotope enrichment of the C-terminal domain of subunit 1 of the general transcription regulator TFIIF (RAP74-CTD), spanning residues 450-517, were obtained as described previously. A codon-optimized synthetic gene cloned in a pDONR221 vector was obtained from GeneArt (Thermo Fisher Scientific, Waltham, MA, USA) and subcloned into a pDEST-His6MBP vector obtained from Addgene. Rosetta (DE3)pLysS competent cells (Novagen, Merck KGaA, Darmstadt, Germany) were grown in MOPS medium with ^15NH4Cl as the only nitrogen source (310 K, induction at OD600 = 0.7, 1 mM IPTG, harvesting 3 h after induction). Soluble fractions of cell lysates from sonication in lysis buffer (50 mM Tris-HCl, 1 M NaCl, 10 mM imidazole, pH 8.0) were purified by IMAC, and fractions containing the His6MBP-TEV-RAP74-CTD fusion were dialyzed at 277 K overnight against cleavage buffer (50 mM Tris-HCl, 200 mM NaCl, 0.5 mM EDTA, pH 8.0) in the presence of TEV protease (50 μg/mL). A second IMAC step was performed and the flow-through containing the RAP-CTD was loaded onto a HiTrap SP HP cation exchange column followed by a size exclusion chromatography step on a Superdex 75 GL 10/300 column equilibrated with NMR buffer (20 mM sodium phosphate, 0.1% trifluoroacetic acid, pH 7.4), both mounted in an Äkta Purifier System (GE Healthcare, Chicago, IL, USA). The sample was concentrated to 100 μM using an Amicon Ultra 15 mL centrifugal filter (Merck KGaA, Darmstadt, Germany).\nBefore the experiment, both the protein and the peptide were dialyzed (277 K, two dialysis steps) in the same preparation of NMR buffer (20 mM sodium phosphate, 0.1% trifluoroacetic acid, pH 7.4), using a Pur-A-Lyzer (Sigma-Aldrich, Burlington, MA, USA) and a Micro Float-A-Lyzer (Spectrum Laboratories, San Francisco, CA, USA) respectively. The chemical shift assignment of RAP74-CTD was reported previously (BMRB code 27288). Averaged ^1H and ^15N chemical shift perturbations (CSPs) were calculated as:2 ΔδAV=(Δδ1H)^2+1/5Δδ15N^2\nDissociation constants, KD, and averaged CSP amplitude, Δδmax, for δ, δstpl, γ and γstpl peptide binding to RAP74-CTD were obtained by a global fitting (nonlinear regression) of the 10% peaks with the largest averaged CSPs to the following single-site binding model (1:1 stoichiometry):3 Δδ=Δδmax([Protein]+[Peptide]+KD)−([Protein]+[Peptide]+KD)^2−4[Protein][Peptide]/2[Protein]", "data": [{"sequence": "KKPGASLAALQALQALQAAQAAKKY [(P3-7)2, Gln-based single α-helix scaffold peptide]", "values": [{"measurement": "CSPs (ppm) induced by peptide on 15N RAP74-CTD, residue 452", "setting": "RAP74-CTD residue 452", "result": 0.00133, "unit": "ppm"}, {"measurement": "CSPs (ppm) induced by peptide on 15N RAP74-CTD, residue 453", "setting": "RAP74-CTD residue 453", "result": 0.00174, "unit": "ppm"}, {"measurement": "CSPs (ppm) induced by peptide on 15N RAP74-CTD, residue 454", "setting": "RAP74-CTD residue 454", "result": 0.00213, "unit": "ppm"}, {"measurement": "CSPs (ppm) induced by peptide on 15N RAP74-CTD, residue 455", "setting": "RAP74-CTD residue 455", "result": 0.00368, "unit": "ppm"}, {"measurement": "CSPs (ppm) induced by peptide on 15N RAP74-CTD, residue 457", "setting": "RAP74-CTD residue 457", "result": 0.000762, "unit": "ppm"}, {"measurement": "CSPs (ppm) induced by peptide on 15N RAP74-CTD, residue 458", "setting": "RAP74-CTD residue 458", "result": 0.00141, "unit": "ppm"}, {"measurement": "CSPs (ppm) induced by peptide on 15N RAP74-CTD, residue 459", "setting": "RAP74-CTD residue 459", "result": 0.00114, "unit": "ppm"}, {"measurement": "CSPs (ppm) induced by peptide on 15N RAP74-CTD, residue 460", "setting": "RAP74-CTD residue 460", "result": 0.00136, "unit": "ppm"}, {"measurement": "CSPs (ppm) induced by peptide on 15N RAP74-CTD, residue 461", "setting": "RAP74-CTD residue 461", "result": 0.00237, "unit": "ppm"}, {"measurement": "CSPs (ppm) induced by peptide on 15N RAP74-CTD, residue 462", "setting": "RAP74-CTD residue 462", "result": 0.00141, "unit": "ppm"}, {"measurement": "CSPs (ppm) induced by peptide on 15N RAP74-CTD, residue 463", "setting": "RAP74-CTD residue 463", "result": 0.00149, "unit": "ppm"}, {"measurement": "CSPs (ppm) induced by peptide on 15N RAP74-CTD, residue 464", "setting": "RAP74-CTD residue 464", "result": 0.002, "unit": "ppm"}, {"measurement": "CSPs (ppm) induced by peptide on 15N RAP74-CTD, residue 465", "setting": "RAP74-CTD residue 465", "result": 0.000665, "unit": "ppm"}, {"measurement": "CSPs (ppm) induced by peptide on 15N RAP74-CTD, residue 466", "setting": "RAP74-CTD residue 466", "result": 0.00337, "unit": "ppm"}, {"measurement": "CSPs (ppm) induced by peptide on 15N RAP74-CTD, residue 468", "setting": "RAP74-CTD residue 468", "result": 0.000677, "unit": "ppm"}, {"measurement": "CSPs (ppm) induced by peptide on 15N RAP74-CTD, residue 469", "setting": "RAP74-CTD residue 469", "result": 0.00178, "unit": "ppm"}, {"measurement": "CSPs (ppm) induced by peptide on 15N RAP74-CTD, residue 470", "setting": "RAP74-CTD residue 470", "result": 0.00475, "unit": "ppm"}, {"measurement": "CSPs (ppm) induced by peptide on 15N RAP74-CTD, residue 471", "setting": "RAP74-CTD residue 471", "result": 0.006, "unit": "ppm"}, {"measurement": "CSPs (ppm) induced by peptide on 15N RAP74-CTD, residue 472", "setting": "RAP74-CTD residue 472", "result": 0.003, "unit": "ppm"}, {"measurement": "CSPs (ppm) induced by peptide on 15N RAP74-CTD, residue 473", "setting": "RAP74-CTD residue 473", "result": 0.00131, "unit": "ppm"}, {"measurement": "CSPs (ppm) induced by peptide on 15N RAP74-CTD, residue 474", "setting": "RAP74-CTD residue 474", "result": 0.000952, "unit": "ppm"}, {"measurement": "CSPs (ppm) induced by peptide on 15N RAP74-CTD, residue 475", "setting": "RAP74-CTD residue 475", "result": 0.0011, "unit": "ppm"}, {"measurement": "CSPs (ppm) induced by peptide on 15N RAP74-CTD, residue 476", "setting": "RAP74-CTD residue 476", "result": 0.00225, "unit": "ppm"}, {"measurement": "CSPs (ppm) induced by peptide on 15N RAP74-CTD, residue 477", "setting": "RAP74-CTD residue 477", "result": 0.0034, "unit": "ppm"}, {"measurement": "CSPs (ppm) induced by peptide on 15N RAP74-CTD, residue 478", "setting": "RAP74-CTD residue 478", "result": 0.00316, "unit": "ppm"}, {"measurement": "CSPs (ppm) induced by peptide on 15N RAP74-CTD, residue 484", "setting": "RAP74-CTD residue 484", "result": 0.00185, "unit": "ppm"}, {"measurement": "CSPs (ppm) induced by peptide on 15N RAP74-CTD, residue 487", "setting": "RAP74-CTD residue 487", "result": 0.009, "unit": "ppm"}, {"measurement": "CSPs (ppm) induced by peptide on 15N RAP74-CTD, residue 488", "setting": "RAP74-CTD residue 488", "result": 0.000614, "unit": "ppm"}, {"measurement": "CSPs (ppm) induced by peptide on 15N RAP74-CTD, residue 489", "setting": "RAP74-CTD residue 489", "result": 0.00261, "unit": "ppm"}, {"measurement": "CSPs (ppm) induced by peptide on 15N RAP74-CTD, residue 490", "setting": "RAP74-CTD residue 490", "result": 0.002, "unit": "ppm"}, {"measurement": "CSPs (ppm) induced by peptide on 15N RAP74-CTD, residue 491", "setting": "RAP74-CTD residue 491", "result": 0.002, "unit": "ppm"}, {"measurement": "CSPs (ppm) induced by peptide on 15N RAP74-CTD, residue 492", "setting": "RAP74-CTD residue 492", "result": 0.003, "unit": "ppm"}, {"measurement": "CSPs (ppm) induced by peptide on 15N RAP74-CTD, residue 493", "setting": "RAP74-CTD residue 493", "result": 0.00151, "unit": "ppm"}, {"measurement": "CSPs (ppm) induced by peptide on 15N RAP74-CTD, residue 494", "setting": "RAP74-CTD residue 494", "result": 0.00469, "unit": "ppm"}, {"measurement": "CSPs (ppm) induced by peptide on 15N RAP74-CTD, residue 495", "setting": "RAP74-CTD residue 495", "result": 0.00146, "unit": "ppm"}, {"measurement": "CSPs (ppm) induced by peptide on 15N RAP74-CTD, residue 496", "setting": "RAP74-CTD residue 496", "result": 0.00171, "unit": "ppm"}, {"measurement": "CSPs (ppm) induced by peptide on 15N RAP74-CTD, residue 497", "setting": "RAP74-CTD residue 497", "result": 0.00134, "unit": "ppm"}, {"measurement": "CSPs (ppm) induced by peptide on 15N RAP74-CTD, residue 498", "setting": "RAP74-CTD residue 498", "result": 0.00172, "unit": "ppm"}, {"measurement": "CSPs (ppm) induced by peptide on 15N RAP74-CTD, residue 499", "setting": "RAP74-CTD residue 499", "result": 0.000579, "unit": "ppm"}, {"measurement": "CSPs (ppm) induced by peptide on 15N RAP74-CTD, residue 500", "setting": "RAP74-CTD residue 500", "result": 0.00095, "unit": "ppm"}, {"measurement": "CSPs (ppm) induced by peptide on 15N RAP74-CTD, residue 501", "setting": "RAP74-CTD residue 501", "result": 0.00151, "unit": "ppm"}, {"measurement": "CSPs (ppm) induced by peptide on 15N RAP74-CTD, residue 503", "setting": "RAP74-CTD residue 503", "result": 0.000881, "unit": "ppm"}, {"measurement": "CSPs (ppm) induced by peptide on 15N RAP74-CTD, residue 504", "setting": "RAP74-CTD residue 504", "result": 0.002, "unit": "ppm"}, {"measurement": "CSPs (ppm) induced by peptide on 15N RAP74-CTD, residue 505", "setting": "RAP74-CTD residue 505", "result": 0.002, "unit": "ppm"}, {"measurement": "CSPs (ppm) induced by peptide on 15N RAP74-CTD, residue 506", "setting": "RAP74-CTD residue 506", "result": 0.008, "unit": "ppm"}, {"measurement": "CSPs (ppm) induced by peptide on 15N RAP74-CTD, residue 507", "setting": "RAP74-CTD residue 507", "result": 0.004, "unit": "ppm"}, {"measurement": "CSPs (ppm) induced by peptide on 15N RAP74-CTD, residue 509", "setting": "RAP74-CTD residue 509", "result": 0.00319, "unit": "ppm"}, {"measurement": "CSPs (ppm) induced by peptide on 15N RAP74-CTD, residue 510", "setting": "RAP74-CTD residue 510", "result": 0.000691, "unit": "ppm"}, {"measurement": "CSPs (ppm) induced by peptide on 15N RAP74-CTD, residue 512", "setting": "RAP74-CTD residue 512", "result": 0.00469, "unit": "ppm"}, {"measurement": "CSPs (ppm) induced by peptide on 15N RAP74-CTD, residue 513", "setting": "RAP74-CTD residue 513", "result": 0.00335, "unit": "ppm"}, {"measurement": "CSPs (ppm) induced by peptide on 15N RAP74-CTD, residue 514", "setting": "RAP74-CTD residue 514", "result": 0.001, "unit": "ppm"}, {"measurement": "CSPs (ppm) induced by peptide on 15N RAP74-CTD, residue 515", "setting": "RAP74-CTD residue 515", "result": 0.00145, "unit": "ppm"}, {"measurement": "CSPs (ppm) induced by peptide on 15N RAP74-CTD, residue 516", "setting": "RAP74-CTD residue 516", "result": 0.00117, "unit": "ppm"}, {"measurement": "CSPs (ppm) induced by peptide on 15N RAP74-CTD, residue 517", "setting": "RAP74-CTD residue 517", "result": 0.000251, "unit": "ppm"}]}]}
